The text below walks through data of patent US12410124B2 (priority 2019, dated 2025).

Like-named read-outs stand apart in the source and are kept apart here.

The subject of experiment [1] is fetal rat midbrain neurons. Briefly: Survival rate of primary midbrain neurons induced by MPP+ (CCK-8). In kind it is cell-based. The settings on record: for viability at 5 µM / viability at 10 µM / viability at 20 µM: Rattus norvegicus, Neuron, read-out: Survival rate (%). The source says:
The main pathological feature of Parkinson's disease (PD) lies in the degeneration and loss of dopaminergic neuron in the substantia nigra-striatum of the midbrain. 1-Methyl-4-phenylpyridinium (MPP+) has a high affinity to dopamine carriers and a selective toxicity on dopaminergic neurons. Thus, MPP+ is one of the most ideal classic neurotoxins for establishing PD cell models. The primary cell culture of fetal rat midbrain is often used to establish PD cell models in recent years. Although it is more cumbersome and has higher technical requirements than cell line culture, it is closer to the pathological characteristics of PD. Thus, a PD cell model is established using neurons from the primary cell culture of fetal rat midbrain under MPP+ induction, to evaluate the protective effect of target compounds on the model neurons.
The midbrain was separated from a fetal rat of a 15-day-pregnant SD rat and cut into pieces, then subjected to trypsin digestion, pipetting, screen filtration, and resuspension steps, and inoculated in a 24-well cell culture plate pre-coated with poly-D-lysine. 12 hours after culture, cytarabine was added to inhibit the growth of glial cells. On the 5th day of neuron growth, the toxin MPP+ can be added to make a PD cell model. When detecting the activity of a target compound, the target compound was pre-incubated with midbrain neurons for 3 h, then MPP+ was added, and after 48 h co-incubation the neuronal viability was detected by CCK-8 method and the neuronal survival rate was calculated to evaluate the inhibitory activity of the target compound on the midbrain neuronal PD damage. The experiment included blank control group, MPP+ model group, positive control group (caffeic acid phenethyl ester, CAPE), prototype control group (styryl sulfone compounds 3B, 3C, 3D, and 3G), and target compound group (prepared according to Examples 1-22 in the invention).

For another experiment, the system named is substantia nigra TH. Briefly: Substantia nigra TH expression in MPTP Parkinson's disease model mouse (immunofluorescence). To be noted: percentage of mean intensity of blank control group, gavage 21 days after MPTP modeling. In kind it is in vivo. As for the experimental part: (§1) Neurotoxins can be used to establish PD animal models. Currently, 1-methyl-4-phenyl-1,2,3,6-tetrahydropyridine (MPTP) is the sole synthetic toxin which is recognized to induce PD symptoms in human and non-human primates and in mice. Using MPTP subacute modeling method, C57BL/6J male mice were intraperitoneally injected with MPTP 30 mg/kg, once a day for 5 consecutive days. The experiment animals were divided into blank control group, MPTP model group, and compound treatment group. For the […] compound treatment group, the compound was administrated by gavage for 21 consecutive days after the completion of modeling; for the MPTP model group, the normal saline was administrated by gavage for 21 consecutive days after the completion of modeling; and for the blank control group, the normal saline was first intraperitoneally injected for 5 days, and then administrated by gavage for 21 days.
The main cause of PD lies in the pathological changes in the substantia nigra-striatum projection system of the brain and the progressive degeneration and loss of dopaminergic neurons. Tyrosine hydroxylase (TH) is the first enzyme in the biosynthesis of catecholamine neurotransmitters, as well as the first rate-limiting enzyme in the dopamine synthesis. It plays an important role in the synthesis and metabolism of the neurotransmitter DA. The TH in PD animal models and patients has a wide range of abnormal changes, from the gene expression to the enzyme protein content and enzyme activity. The detection of the TH expression in the midbrain and substantia nigra of PD model mice can be used to evaluate the neuroprotective activity of the compound.
Half of experiment mice in each group were taken to separate the midbrain after perfusion and fixation. The tissue was trimmed, and the substantia nigra-striatum area was taken to prepare paraffin sections. The TH immunofluorescence staining was performed in the brain sections of mice in each group. […] The experiment included blank control group, MPTP model group, positive control group (caffeic acid phenethyl ester, CAPE), prototype control group (styryl sulfone compounds 3B, 3C, 3D, and 3G, whose structures are shown as above), and target compound group.

The subject of the next experiment is hippocampus CD11b. Put plainly: Number of hippocampus microglial cells with CD11b positive expression in MPTP Parkinson's disease model mouse (immunohistochemistry). The format is in vivo. To be noted: hippocampus, MPTP Parkinson's disease model mouse, immunohistochemistry. The protocol:
as §1
(§2) Neuron-glial cell network homeostasis disorder is an important factor for the selective and progressive death of substantia nigra dopaminergic neurons in PD. In the neurotoxic effect of MPTP, the excessive activations of microglial cells and astrocytes produce a variety of inflammatory cytokines and reactive oxygen species (ROS). These inflammatory factors and ROS amplify their respective toxicities and mediate malignant feedback loop, causing a cascade inflammation response and aggravating the pathological process of PD. CD11b and GFAP are the marker proteins for activations of microglial cells and astrocytes, respectively. Therefore, the effect of the target compounds on the activations of the microglial cells and astrocytes in the substantia nigra, hippocampus, and midbrain areas of MPTP-induced PD mice can be investigated, to explore the mechanism of the anti-PD effect of the target compounds by inhibiting the neuroinflammation.
Half of experiment mice in each group were taken to separate the midbrain after perfusion and fixation. The tissue was trimmed, and the hippocampus area was taken to prepare paraffin sections. The CD11b immunohistochemical staining was performed for the statistics of the change in the number of microglial cells with CD11b positive expression. The experiment included blank control group, MPTP model group, positive control group (caffeic acid phenethyl ester, CAPE), prototype control group (styryl sulfone compounds 3B, 3C, 3D, and 3G, whose structures are shown as above), and target compound group.

A further experiment relates to substantia nigra GFAP. Put plainly: Number of substantia nigra astrocytes with GFAP positive expression in MPTP Parkinson's disease model mouse (immunohistochemistry). In kind it is in vivo. The settings on record: substantia nigra, MPTP Parkinson's disease model mouse, immunohistochemistry. The protocol: as §1, §2
Half of experiment mice in each group were taken to separate the midbrain after perfusion and fixation. The tissue was trimmed, and the substantia nigra area was taken to prepare paraffin sections. The GFAP immunohistochemical staining was performed for the statistics of the change in the number of astrocytes with GFAP positive expression. The experiment included blank control group, MPTP model group, positive control group (caffeic acid phenethyl ester, CAPE), prototype control group (styryl sulfone compounds 3B, 3C, 3D, and 3G, whose structures are shown as above), and target compound group.

Another experiment has as its system substantia nigra p-α-s. Briefly: Substantia nigra p-α-s protein expression in MPTP Parkinson's disease model mouse (immunofluorescence). The format is in vivo. To be noted: percentage of mean intensity of blank control group, gavage 21 days after MPTP modeling. As for the experimental part:
as §1
Alpha-synuclein is an “unfolded protein” in its natural state. It exists in a monomeric form, and participates in the physiological functions such as the release of neurotransmitters, the establishment of synaptic junctions, and the regulation of synaptic plasticity. Under pathological conditions, more than 90% of alpha-synuclein is phosphorylated at serine of position 129 and converted into phosphorylated alpha-synuclein (p-α-s), thereby forming Lewy bodies. The formation of Lewy bodies is one of the main pathological manifestations and pathological mechanisms for Parkinson's disease, and plays an important role in the formation and development of PD. The detection of the p-α-s expression in the midbrain and substantia nigra of PD model mice can evaluate the neuroprotective activity of the compound.
Half of experiment mice in each group were taken to separate the midbrain after perfusion and fixation. The tissue was trimmed, and the substantia nigra-striatum area was taken to prepare paraffin sections. The p-α-s immunofluorescence staining was performed in the brain sections of mice in each group. […] The experiment included blank control group, MPTP model group, positive control group (caffeic acid phenethyl ester, CAPE), prototype control group (styryl sulfone compounds 3B, 3C, 3D, and 3G, whose structures are shown as above), and target compound group.

Where [2] appears, read: 5 μM, 3 h pre-incubation, 48 h with MPP+.
[3] abbreviates: 10 μM, 3 h pre-incubation, 48 h with MPP+.
Setting [4] is: 20 μM, 3 h pre-incubation, 48 h with MPP+.

Turning to `CNC(=O)Oc1ccc(/C=C/S(=O)(=O)CC(Cl)c2ccc(Cl)c([N+](=O)[O-])c2)cc1O` (stereo not shown) [Compound E2-2, (E)-4-{2-[2-chloro-2-(4-chloro-3-nitrophenyl)ethylsulfonyl]ethenyl}-2-hydroxyphenyl-N-methylcarbamate], in experiment [1] (48 h), the viability at 5 µM amounted to 58.1 ± 4.27%, the viability at 10 µM was determined as 69.3 ± 2.33% and the viability at 20 µM stood at 86.1 ± 2.06%. For the same compound, in the experiment on substantia nigra TH, the “Expression (Immunofluorescence intensity %)” value was determined as 93.12 ± 4.56%. Moreover, the “Positive cell number (microglial cells with CD11b positive expression)” value with hippocampus CD11b was 15 ± 2. Besides, the “Positive cell number (astrocytes with GFAP positive expression)” value in the experiment with substantia nigra GFAP is on record as 102 ± 5. Besides, the “Expression (Immunofluorescence intensity %)” value with substantia nigra p-α-s is on record as 128.26 ± 11.62%.
As to `O=S(=O)(/C=C/c1ccc(O)c(O)c1)Cc1ccc(Cl)cc1` [Compound 3D, (E)-4-{2-[(4-chlorophenyl)mesyl]ethenyl}benzene-1,2-diol, reference compound], the viability at 5 µM in experiment [1] (setting [2]) was 69.5 ± 5.21%. The viability at 10 µM in experiment [1] (setting [3]) was 84.1 ± 1.87%. The viability at 20 µM in experiment [1] (setting [4]) was 91.5 ± 2.32%. The “Expression (Immunofluorescence intensity %)” value worked out at 87.38 ± 4.01% in the experiment with substantia nigra TH and 104.89 ± 7.56% in the experiment on substantia nigra p-α-s. In addition, the “Positive cell number (microglial cells with CD11b positive expression)” value in the experiment with hippocampus CD11b is on record as 18 ± 3. Also, the “Positive cell number (astrocytes with GFAP positive expression)” value with substantia nigra GFAP is 110 ± 9.
For “(E)-2-[(methylamino)methoxy]-4-{2-[1-(4′-nitro-[1,1′-biphenyl]-4-yl)ethylsulfonyl]ethenyl}phenylcarbamate [Compound M1-3]”, the entries for the “Survival rate (%)” value in experiment [1] (setting [2]), in experiment [1] (setting [3]) and in experiment [1] (setting [4]) were 76.51 ± 4.82%, 85.29 ± 2.97% and 93.26 ± 2.26%, respectively. For the same compound, the “Expression (Immunofluorescence intensity %)” value in the experiment on substantia nigra TH came to 84.07 ± 3.19%; in the experiment with substantia nigra p-α-s, 79.17 ± 5.10%. Besides, in the experiment on hippocampus CD11b, the “Positive cell number (microglial cells with CD11b positive expression)” value stood at 12 ± 2. Also, the “Positive cell number (astrocytes with GFAP positive expression)” value in the experiment on substantia nigra GFAP is 110 ± 5.
With `O=S(=O)(/C=C/c1ccc(O)c(O)c1)Cc1ccc(C(F)(F)F)cc1` [Compound 3B, (E)-4-{2-[(4-trifluoromethylphenyl)mesyl]ethenyl}benzene-1,2-diol, reference compound], the viability at 5 µM in experiment [1] (setting [2]) was 65.9 ± 1.47%. The viability at 10 µM in experiment [1] (setting [3]) was 76.4 ± 6.54%. The viability at 20 µM in experiment [1] (setting [4]) was 84.9 ± 2.65%. Moreover, the “Expression (Immunofluorescence intensity %)” value is recorded as 83.18 ± 5.87% with substantia nigra TH and 236.55 ± 13.78% in the experiment on substantia nigra p-α-s. In addition, in the experiment on hippocampus CD11b, the “Positive cell number (microglial cells with CD11b positive expression)” value is 16 ± 2. Moreover, the “Positive cell number (astrocytes with GFAP positive expression)” value in the experiment on substantia nigra GFAP was 121 ± 10.
As for `C=CCOc1ccc(C/C=C/S(=O)(=O)/C=C/c2ccc(OC(C)=O)c(OC(=O)N(CC=C)CC=C)c2)cc1` [Compound K1-4, 4-{(E)-2-[(E)-3-(4-allyloxyphenyl)prop-1-en-1-yl]sulfonylethenyl}-2-(N,N-diallylcarbamoyloxy)phenyl acetate], in experiment [1] (setting [2]), the viability at 5 µM amounted to 76.7 ± 3.17%. Moreover, the viability at 10 µM in experiment [1] (setting [3]) was 87.1 ± 2.56%. Further, in experiment [1] (setting [4]), the viability at 20 µM was found to be 93.2 ± 1.81%. The “Expression (Immunofluorescence intensity %)” value is listed as 74.20 ± 6.58% with substantia nigra TH and 106.95 ± 9.27% in the experiment with substantia nigra p-α-s. The “Positive cell number (microglial cells with CD11b positive expression)” value in the experiment on hippocampus CD11b is 13 ± 2. The “Positive cell number (astrocytes with GFAP positive expression)” value in the experiment with substantia nigra GFAP is recorded as 112 ± 4.
For `COc1ccc(CC(=O)Oc2ccc(/C(C)=C/S(=O)(=O)/C=C/c3ccc(OC(=O)N(C)C)c(O[Si](C)(C)CCl)c3)cc2)cc1` [Compound P1-7, 4-{(E)-1-[(E)-3-(chloromethyldimethylsiloxy)-4-(N,N-dimethylcarbamoyloxy)styrylsulfonyl]prop-1-en-2-yl}phenyl-2-(4-methoxyphenyl) acetate], in experiment [1] (48 h), the viability at 5 µM was found to be 79.2 ± 3.72%, the viability at 10 µM came out at 86.6 ± 2.93% and the viability at 20 µM was 91.2 ± 2.08%. In the experiment on substantia nigra TH, the “Expression (Immunofluorescence intensity %)” value came out at 88.07 ± 5.03%. In addition, the “Positive cell number (microglial cells with CD11b positive expression)” value in the experiment on hippocampus CD11b stood at 8 ± 2. Also, in the experiment with substantia nigra GFAP, the “Positive cell number (astrocytes with GFAP positive expression)” value is 73 ± 5. Moreover, in the experiment with substantia nigra p-α-s, the “Expression (Immunofluorescence intensity %)” value worked out at 61.28 ± 5.36%.
As for `CC(Br)C(Br)COc1cc(/C=C/S(=O)(=O)CCc2ccc(OCC(F)(F)F)cc2)ccc1OC(=O)Nc1ccsc1` (stereo not shown) [Compound K1-3, (E)-2-(2,3-dibromobutoxy)-4-{2-[4-(2,2,2-trifluoroethoxy)phenylethylsulfonyl]ethenyl}phenyl-N-(thien-3-yl)carbamate], the viability at 5 µM in experiment [1] (setting [2]) worked out at 65.4 ± 4.31%. Besides, the viability at 10 µM in experiment [1] (setting [3]) amounted to 72.1 ± 2.77%. For the same compound, the viability at 20 µM in experiment [1] (setting [4]) was 83.2 ± 1.76%. For the same compound, the “Expression (Immunofluorescence intensity %)” value worked out at 87.28 ± 4.11% in the experiment on substantia nigra TH and 90.04 ± 7.43% with substantia nigra p-α-s. The “Positive cell number (microglial cells with CD11b positive expression)” value in the experiment with hippocampus CD11b was found to be 16 ± 1. Moreover, the “Positive cell number (astrocytes with GFAP positive expression)” value in the experiment on substantia nigra GFAP was 86 ± 5.
